# Structures can show the parent of a compound that is named as a salt.
# Biological target: TTX resistant Na channel of human SNS-expressing cell (SNS) (Homo sapiens, UniProt Q9Y5Y9)
# Assay: cell-based
# Settings: CHO-K1, compound concentration 12.5 μM; read-out: SNS inhibitory rate (%)
# TTX resistant Na channel of human SNS-expressing cell (SNS), sequence (Q9Y5Y9 whole entry, looked up): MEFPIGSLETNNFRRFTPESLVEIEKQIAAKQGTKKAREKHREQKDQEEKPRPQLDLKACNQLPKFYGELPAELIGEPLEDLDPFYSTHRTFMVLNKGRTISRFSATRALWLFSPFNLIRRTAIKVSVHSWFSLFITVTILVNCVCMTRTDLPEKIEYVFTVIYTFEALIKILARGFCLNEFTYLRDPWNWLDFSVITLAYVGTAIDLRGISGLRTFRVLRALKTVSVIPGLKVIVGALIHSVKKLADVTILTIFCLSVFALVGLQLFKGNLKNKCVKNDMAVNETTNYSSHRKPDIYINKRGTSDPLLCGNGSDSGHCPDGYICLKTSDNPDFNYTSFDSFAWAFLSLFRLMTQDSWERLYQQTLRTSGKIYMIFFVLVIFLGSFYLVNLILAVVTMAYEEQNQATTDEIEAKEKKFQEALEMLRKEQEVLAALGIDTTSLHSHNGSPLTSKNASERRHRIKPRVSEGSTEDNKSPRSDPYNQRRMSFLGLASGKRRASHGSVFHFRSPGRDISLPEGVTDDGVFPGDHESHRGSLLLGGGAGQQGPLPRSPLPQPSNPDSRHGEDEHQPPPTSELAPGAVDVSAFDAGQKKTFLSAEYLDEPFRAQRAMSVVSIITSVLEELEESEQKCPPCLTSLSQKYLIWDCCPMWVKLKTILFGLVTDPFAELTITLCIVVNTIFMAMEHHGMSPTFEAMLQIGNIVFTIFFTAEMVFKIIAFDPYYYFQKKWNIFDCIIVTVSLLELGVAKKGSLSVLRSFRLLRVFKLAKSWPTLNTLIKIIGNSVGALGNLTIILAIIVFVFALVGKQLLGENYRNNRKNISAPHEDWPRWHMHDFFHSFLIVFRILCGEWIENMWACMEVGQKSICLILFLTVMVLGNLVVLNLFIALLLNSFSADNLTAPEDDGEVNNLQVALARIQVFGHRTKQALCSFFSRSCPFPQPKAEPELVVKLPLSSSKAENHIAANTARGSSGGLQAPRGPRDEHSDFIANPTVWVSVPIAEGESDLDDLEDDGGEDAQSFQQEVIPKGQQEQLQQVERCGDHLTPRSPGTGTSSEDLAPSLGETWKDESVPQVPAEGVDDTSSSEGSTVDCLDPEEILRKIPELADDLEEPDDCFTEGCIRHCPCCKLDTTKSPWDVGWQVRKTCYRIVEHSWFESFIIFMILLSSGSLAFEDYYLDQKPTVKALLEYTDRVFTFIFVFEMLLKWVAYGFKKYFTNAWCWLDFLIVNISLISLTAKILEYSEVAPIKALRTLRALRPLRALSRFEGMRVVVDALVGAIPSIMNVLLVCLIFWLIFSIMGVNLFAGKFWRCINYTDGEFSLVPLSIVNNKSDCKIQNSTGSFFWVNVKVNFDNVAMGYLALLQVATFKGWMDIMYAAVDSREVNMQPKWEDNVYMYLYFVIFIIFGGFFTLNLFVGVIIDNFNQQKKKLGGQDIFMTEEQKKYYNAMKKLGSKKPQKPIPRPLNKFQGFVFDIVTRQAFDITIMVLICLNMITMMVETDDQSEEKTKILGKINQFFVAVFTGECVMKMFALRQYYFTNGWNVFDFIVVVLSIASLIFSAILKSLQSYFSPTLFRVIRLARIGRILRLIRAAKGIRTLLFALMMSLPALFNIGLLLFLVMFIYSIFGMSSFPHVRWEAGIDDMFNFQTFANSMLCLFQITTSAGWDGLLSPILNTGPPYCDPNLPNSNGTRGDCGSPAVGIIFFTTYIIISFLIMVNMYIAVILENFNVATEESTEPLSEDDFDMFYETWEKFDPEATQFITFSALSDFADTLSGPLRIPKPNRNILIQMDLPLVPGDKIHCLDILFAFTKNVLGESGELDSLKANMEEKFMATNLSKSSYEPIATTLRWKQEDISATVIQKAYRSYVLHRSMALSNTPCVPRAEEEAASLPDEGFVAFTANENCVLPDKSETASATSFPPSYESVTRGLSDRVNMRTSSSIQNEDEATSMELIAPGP
row,Compound,inhibition at 12.5 µM
1,"C[C@H](NCc1nc2cc(F)c(-c3ccc(F)cc3)cc2n1C1CCOCC1)C(N)=O [Example 116, N^2-{[5-fluoro-6-(4-fluorophenyl)-1-(tetrahydro-2H-pyran-4-yl)-1H-benzimidazol-2-yl]methyl}-L-alaninamide]",33.2%
2,"C[C@H](NCc1nc2ccc(Oc3ccc(F)cc3)cc2n1C1CCN(S(C)(=O)=O)CC1)C(N)=O [Example 86, N^2-({6-(4-fluorophenoxy)-1-[1-(methylsulfonyl)piperidin-4-yl]-1H-benzimidazol-2-yl}methyl)-L-alaninamide]",8.3%
3,CCOCCn1c(CNCC(N)=O)nc2ccc(Oc3ccc(Cl)cc3)cc21 [Example 28],27.4%
4,"CCOCCn1c(CN[C@@H](C)C(N)=O)nc2c(F)cc(-c3ccc(F)cc3)cc21 [Example 114, N^2-{[1-(2-ethoxyethyl)-4-fluoro-6-(4-fluorophenyl)-1H-benzimidazol-2-yl]methyl}-L-alaninamide]",6.5%
5,CCOCCn1c(CN[C@@H](C)C(N)=O)nc2ccc(-c3ccc(C)c(F)c3)cc21 [Example 169],68.1%
6,"CCOCCn1c(CNCC(N)=O)nc2ccc(Oc3ccc(F)cc3)cc21 [Example 3, N^2-{[1-(2-ethoxyethyl)-6-(4-fluorophenoxy)-1H-benzimidazol-2-yl]methyl}glycinamide]",12.9%
7,CCOCCn1c(CN[C@@H](C)C(N)=O)nc2ccc(-c3ccc(C)cc3F)cc21 [Example 165],100%
8,"CCOCCn1c(CN[C@@H](C)C(N)=O)nc2c(Cl)cc(-c3ccc(F)cc3)cc21 [Example 112, N^2-{[4-chloro-1-(2-ethoxyethyl)-6-(4-fluorophenyl)-1H-benzimidazol-2-yl]methyl}-L-alaninamide]",0%
9,"CCOCCn1c(CN[C@@H](C)C(N)=O)nc2ccc(OCc3ccccc3)cc21 [Example 76, N^2-{[6-(benzyloxy)-1-(2-ethoxyethyl)-1H-benzimidazol-2-yl]methyl}-L-alaninamide]",18.8%
10,"CCOCCn1c(CNC(C)(C)C(N)=O)nc2ccc(Oc3ccc(F)cc3)cc21 [Example 5, N^2-{[1-(2-ethoxyethyl)-6-(4-fluorophenoxy)-1H-benzimidazol-2-yl]methyl}-2-methylalaninamide]",59.3%
11,CCOCCn1c(CN[C@@H](C)C(N)=O)nc2ccc(-c3ccc(C)cc3)cc21 [Example 144],6.1%
12,CCOCCn1c(CN[C@@H](C)C(N)=O)nc2ccc(Oc3ccccc3Cl)cc21 [Example 31],92.1%
13,C[C@H](NCc1nc2ccc(Oc3ccc(OC(F)(F)F)cc3)cc2n1CC(C)(C)O)C(N)=O [Example 103],87.9%
14,CCOCCn1c(CNC(C)(C)C(N)=O)nc2ccc(-c3ccc(F)cc3Cl)cc21 [Example 156],71.2%
15,CCOCCCn1c(CN[C@@H](C)C(N)=O)nc2ccc(Oc3ccc(F)cc3)cc21 [Example 47],86.6%
16,COCCCn1c(CN[C@@H](C)C(N)=O)nc2ccc(Oc3ccccc3)cc21 [Example 24],5.8%
17,CCOCCn1c(CN[C@@H](C)C(N)=O)nc2cc(Cl)c(-c3ccc(C)cc3)cc21 [Example 178],16%
18,"C[C@H](NCc1nc2ccc(Oc3ccc(F)cc3)cc2n1CCO)C(N)=O [Example 117, N^2-{[6-(4-fluorophenoxy)-1-(2-hydroxyethyl)-1H-benzimidazol-2-yl]methyl}-L-alaninamide]",78.8%
19,"CCOCCn1c(CN[C@@H](C)C(N)=O)nc2cc(C(F)(F)F)c(-c3ccc(F)cc3)cc21 [Example 115, N^2-{[1-(2-ethoxyethyl)-6-(4-fluorophenyl)-5-(trifluoromethyl)-1H-benzimidazol-2-yl]methyl}-L-alaninamide]",3.5%
20,"CCOCCn1c(CN[C@@H](C)C(N)=O)nc2ccc(Oc3ccc(F)cc3)cc21 [Example 59, N^2-{[1-(2-ethoxyethyl)-6-(4-fluorophenoxy)-1H-benzimidazol-2-yl]methyl}-L-alaninamide]",54.8%
21,NC(=O)CNCc1nc2ccc(Oc3ccccc3)cc2n1C1CCC1 [Example 12],17%

row,Compound,inhibition at 12.5 µM
1,CCOCCn1c(CN[C@@H](C)C(N)=O)nc2ccc(Oc3ccc(C(F)(F)F)cc3)cc21 [Example 46],95.5%
2,C[C@H](NCc1nc2ccc(Oc3ccc(F)cc3F)cc2n1C[C@@H]1CCCO1)C(N)=O [Example 121],94.3%
3,"CCOCCn1c(CN[C@@H](C)C(N)=O)nc2cc(-c3ccc(Cl)cc3)ccc21 [Example 191, N^2-{[5-(4-chlorophenyl)-1-(2-ethoxyethyl)-1H-benzimidazol-2-yl]methyl}-L-alaninamide hydrochloride]",23.3%
4,CCOCCn1c(CN[C@@H](C)C(N)=O)nc2cc(F)c(-c3ccc(Cl)cc3)cc21 [Example 186],55.6%
5,CC(C)OCCn1c(CN[C@@H](C)C(N)=O)nc2ccc(Oc3ccc(F)cc3)cc21 [Example 62],93.8%
6,COCCCn1c(CN[C@@H](C)C(N)=O)nc2ccc(Oc3ccc(F)cc3)cc21 [Example 64],82.7%
7,CCOCCn1c(CN[C@@H](C)C(N)=O)nc2ccc(Oc3cc(F)c(F)cc3F)cc21 [Example 55],89.4%
8,CCOCCn1c(CN[C@@H](C)C(N)=O)nc2ccc(Oc3cc(F)cc(F)c3F)cc21 [Example 57],87.6%
9,CCOCCn1c(CN[C@@H](C)C(N)=O)nc2cc(Cl)c(-c3ccc(F)c(F)c3)cc21 [Example 180],4.5%
10,CC(C)n1c(CNCC(N)=O)nc2ccc(Oc3ccccc3)cc21 [Example 10],16.3%
11,C[C@H](NCc1nc2ccc(Oc3ccc(OC(F)(F)F)cc3)cc2n1C1CC1)C(N)=O [Example 100],72.1%
12,Cc1ccc(Oc2ccc3nc(CN[C@@H](C)C(N)=O)n(CC(C)(C)O)c3c2)cc1 [Example 101],85.2%
13,CCOCCn1c(CNC(C)(C)C(N)=O)nc2ccc(-c3ccc(F)cc3C)cc21 [Example 158],86.1%
14,"COCCn1c(CNC(C)(C)C(N)=O)nc2ccc(Oc3ccc(F)cc3)cc21 [Example 91, N^2-{[6-(4-fluorophenoxy)-1-(2-methoxyethyl)-1H-benzimidazol-2-yl]methyl}-2-methylalaninamide]",76.4%
15,CC(C)(NCc1nc2ccc(Oc3ccccc3)cc2n1C[C@@H]1CCCO1)C(N)=O [Example 35],10.8%
16,CCOCCn1c(CN[C@@H](C)C(N)=O)nc2cc(F)c(-c3ccc(C)cc3)cc21 [Example 184],87.9%
17,CCOCCn1c(CN[C@@H](C)C(N)=O)nc2ccc(Oc3cccc(F)c3F)cc21 [Example 58],71.2%
18,CCOCCn1c(CN[C@@H](C)C(N)=O)nc2ccc(Oc3ccc(Cl)cc3)cc21 [Example 27],78.2%
19,CCOCCn1c(CN[C@@H](C)C(N)=O)nc2ccc(-c3ccc(C)c(C)c3)cc21 [Example 161],76.2%
20,"CCOCCn1c(CN[C@@H](C)C(N)=O)nc2ccc(Oc3ccc(C(C)(C)C)cc3)cc21 [Example 74, N^2-{[6-(4-tert-butylphenoxy)-1-(2-ethoxyethyl)-1H-benzimidazol-2-yl]methyl}-L-alaninamide]",58.2%
21,"CCOCCn1c(CN[C@@H](C)C(N)=O)nc2ccc(Oc3ccccc3)nc21 [Example 79, N^2-{[3-(2-ethoxyethyl)-5-phenoxy-3H-imidazo[4,5-b]pyridin-2-yl]methyl}-L-alaninamide]",3.5%

row,Compound,inhibition at 12.5 µM
1,"CCOCCn1c(CN[C@@H](C)C(N)=O)nc2ccc(Oc3ccc(OC)cc3)cc21 [Example 75, N^2-{[1-(2-ethoxyethyl)-6-(4-methoxyphenoxy)-1H-benzimidazol-2-yl]methyl}-L-alaninamide]",0%
2,CC(C)(NCc1nc2ccc(Oc3ccc(F)cc3)cc2n1C1CC1)C(N)=O [Example 136],28.7%
3,CCOCCn1c(CN(C)CC(N)=O)nc2ccc(Oc3ccccc3)cc21 [Example 40],95.8%
4,CCOCCn1c(CN[C@@H](CC)C(N)=O)nc2ccc(-c3ccc(C)c(C)c3)cc21 [Example 163],36.5%
5,CCn1c(CNC(C)(C)C(N)=O)nc2ccc(-c3ccc(F)cc3)cc21 [Example 154],11.2%
6,CCOCCn1c(CN[C@@H](C)C(N)=O)nc2ccc(-c3ccc(Cl)cc3)cc21 [Example 73],8%
7,Cc1ccc(Oc2ccc3nc(CN[C@@H](C)C(N)=O)n(C4CCOCC4)c3c2)cc1 [Example 129],90.3%
8,CCOCCn1c(CN[C@@H](C)C(N)=O)nc2cc(Cl)c(-c3ccccc3)cc21 [Example 177],22.5%
9,C[C@H](NCc1nc2ccc(Oc3ccc(F)cc3)cc2n1C1CCOCC1)C(N)=O [Example 6],77.8%
10,COCCn1c(CNCC(N)=O)nc2ccc(Oc3ccc(F)cc3)cc21 [Example 63],9.2%
11,CCOCCn1c(CN[C@@H](C)C(N)=O)nc2ccc(-c3cccc(F)c3F)cc21 [Example 171],38.3%
12,CC(C)(NCc1nc2ccc(Oc3ccc(F)cc3)cc2n1C1CCOCC1)C(N)=O [Example 8],90.4%
13,CCOCCn1c(CN[C@@H](C)C(N)=O)nc2ccc(-c3ccc(F)cc3)cc21 [Example 68],16%
14,CCOCCn1c(CN[C@@H](C)C(N)=O)nc2cc(F)c(-c3ccccc3)cc21 [Example 185],64.6%
15,C[C@H](NCc1nc2ccc(Oc3ccccc3)cc2n1C1CCC1)C(N)=O [Example 11],63%
16,CCOCCn1c(CN[C@@H](C)C(N)=O)nc2ccc(Oc3ccc(F)cc3Cl)cc21 [Example 93],82.1%
17,CC(C)n1c(CN[C@@H](C)C(N)=O)nc2ccc(Oc3ccccc3)cc21 [Example 9],28.9%
18,CC(C)OCCn1c(CNCC(N)=O)nc2ccc(Oc3ccc(F)cc3)cc21 [Example 61],26.1%
19,"CCOCCn1c(CNCC(N)=O)nc2ccc(-c3ccccc3)cc21 [Example 66, N^2-{[1-(2-ethoxyethyl)-6-phenyl-1H-benzimidazol-2-yl]methyl}glycinamide]",16.8%
20,CC(C)(NCc1nc2ccc(Oc3ccc(F)cc3)cc2n1CCO)C(N)=O [Example 143],27.7%

# Source: patent publication US20130303535A1, “NOVEL BICYCLIC HETEROCYCLIC COMPOUND” (priority 2008, published 2013)
